Patent US10292396B2, “Methods for assessing repellant quality of organic materials and methods and compositions for repelling arthropods” (priority 2011, dated 2019)

Experiments:
[1] = tested on: trichoid sensillum housed odor receptor, which is also activated by DEET; conditions: compared with DEET; cited from earlier work
[2] = tested on: Aedes aegypti; test: protection time assay for mosquito repellency; assay type: in vivo; conditions: standardized to 25 μmol/cm^2; assigned, not measured
Protocol: In two recent studies, 34 N-acylpiperdine and 38 carboxamide mosquito repellent candidates were synthesized and compared for their effectiveness. […] The mode of repellency for all of these compounds is unknown. As the N-acylpiperdines and some of the carboxamides are larger and likely have a lower vapor pressure than DEET, it is possible that the increased protection times of these compounds is due to a slower evaporation rate.
As these odors were tested using different approaches, a single unit of measure was needed to standardize them for training. Since the largest proportion of odors was measured in protection time, all odors were converted into this single standard of protection time in days to match with the Katritzky data at a concentration of 25 μmol/cm^2. Picaridin, which is believed to have a similar protection to DEET, was given the same protection time as DEET (17.5 days). […] While this is a very rough approximation, it is sufficiently accurate for training.

[3] = target: acetylcholoinesterase (Homo sapiens, UniProt P22303); conditions: in humans, recent study; cited from earlier work
[4] = in vivo; cited from earlier work
[5] = tested on: Aedes aegypti; conditions: 25 μmol/cm^2, Katritzky data; cited from earlier work
[6] = tested on: insects; conditions: in vivo; cited from earlier work

acetylcholoinesterase, sequence (P22303 32-614): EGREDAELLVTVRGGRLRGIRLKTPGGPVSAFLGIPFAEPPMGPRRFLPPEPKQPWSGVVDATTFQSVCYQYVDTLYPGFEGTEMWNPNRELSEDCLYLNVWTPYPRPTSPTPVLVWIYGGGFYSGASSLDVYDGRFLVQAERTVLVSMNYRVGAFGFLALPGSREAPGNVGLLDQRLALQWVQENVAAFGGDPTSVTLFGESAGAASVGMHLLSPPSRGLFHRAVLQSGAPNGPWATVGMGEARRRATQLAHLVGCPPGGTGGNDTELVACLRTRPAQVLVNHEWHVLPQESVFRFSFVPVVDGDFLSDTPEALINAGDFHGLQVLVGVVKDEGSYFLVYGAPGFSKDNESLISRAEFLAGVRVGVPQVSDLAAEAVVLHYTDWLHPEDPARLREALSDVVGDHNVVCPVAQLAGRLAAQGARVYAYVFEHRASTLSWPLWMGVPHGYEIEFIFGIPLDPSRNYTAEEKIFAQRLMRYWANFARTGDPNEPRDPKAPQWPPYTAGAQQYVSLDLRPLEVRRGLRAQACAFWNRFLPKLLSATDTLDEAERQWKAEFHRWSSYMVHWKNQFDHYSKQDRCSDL

SMILES | activation of DEET-activated odor receptor / DEET receptive neuron [1] | protection time given for training (same as DEET, very rough approximation) [2] [days] | further results
C=CC(C)(O)CCC=C(C)C (stereo not shown) [linalool] | more strongly than DEET | 17.5 | 
CC1C(=O)CC2(C(C)C)CC12 (stereo not drawn) [beta-thujone] |  | 17.5 | 
CCN(CC)C(=O)c1cccc(C)c1 [DEET, N,N-diethyl-3-methylbenzamide] |  |  | inhibition of acetylcholinesterase [3]: inhibit; irritation [4]: act as an irritant; protection time [5]: 17.5 days
CC12CCC(CC1)C(C)(C)O2 [Eucalyptol] | more strongly than DEET | 17.5 | 
CC(C)[C@]12CC(=O)[C@H](C)[C@H]1C2 [alpha-thujone] |  | 17.5 | 
CC(C)[C@]12CC(=O)[C@H](C)[C@H]1C2 [thujone] | more strongly than DEET |  | 
CCC(C)OC(=O)N1CCCCC1CCO (stereo not shown) [Icaridin] |  | 17.5 | irritation [4]: less irritating than DEET; effectiveness at repelling insects compared with DEET [6]: as effective as DEET
